Each structure is given as a SMILES string.

One may read the IC50 as the concentration that inhibits the measured activity by half. A higher IC50 goes with lower potency.

The target in the assay is T1, human TLR8 (Homo sapiens, UniProt Q9NR97).
T1 construct: host or cells: HEK-Blue cells
T1 sequence (Q9NR97 27-1041): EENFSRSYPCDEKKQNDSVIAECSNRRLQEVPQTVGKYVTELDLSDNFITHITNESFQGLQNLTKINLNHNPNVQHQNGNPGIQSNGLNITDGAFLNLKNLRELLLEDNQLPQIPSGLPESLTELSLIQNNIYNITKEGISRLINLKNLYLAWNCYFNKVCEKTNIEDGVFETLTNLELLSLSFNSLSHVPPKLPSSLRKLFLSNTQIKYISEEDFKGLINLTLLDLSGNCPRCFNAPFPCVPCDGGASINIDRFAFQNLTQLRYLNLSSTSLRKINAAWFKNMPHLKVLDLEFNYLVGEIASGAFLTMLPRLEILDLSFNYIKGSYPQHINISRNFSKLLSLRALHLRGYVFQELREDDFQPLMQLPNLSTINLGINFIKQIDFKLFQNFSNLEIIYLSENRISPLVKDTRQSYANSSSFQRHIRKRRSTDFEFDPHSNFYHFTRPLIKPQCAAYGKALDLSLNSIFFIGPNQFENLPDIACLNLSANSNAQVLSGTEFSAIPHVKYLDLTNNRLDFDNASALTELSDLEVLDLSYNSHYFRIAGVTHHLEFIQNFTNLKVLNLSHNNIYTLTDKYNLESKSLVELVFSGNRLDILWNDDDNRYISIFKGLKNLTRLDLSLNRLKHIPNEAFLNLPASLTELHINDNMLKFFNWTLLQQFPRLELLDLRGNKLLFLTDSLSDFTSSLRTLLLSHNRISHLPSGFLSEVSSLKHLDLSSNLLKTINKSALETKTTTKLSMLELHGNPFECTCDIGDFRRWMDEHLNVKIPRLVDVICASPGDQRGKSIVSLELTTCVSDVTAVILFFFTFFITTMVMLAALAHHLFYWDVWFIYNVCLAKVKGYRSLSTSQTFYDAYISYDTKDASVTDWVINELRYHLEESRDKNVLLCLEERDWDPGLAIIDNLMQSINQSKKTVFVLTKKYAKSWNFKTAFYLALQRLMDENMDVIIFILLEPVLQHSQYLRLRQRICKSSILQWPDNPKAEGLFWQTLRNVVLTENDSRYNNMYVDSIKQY
Put plainly: TLR8 inhibition reporter assay (HEK-Blue SEAP). The settings on record: HEK-Blue cells overexpressing human TLR8, R848 15.9 μM, 22 hour incubation. The format is cell-based. In outline: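 Dose–response from 0.05 nM to 50 μM was run in HEK-Blue human TLR7, TLR8 and TLR9 reporter cells. After 30 min at room temperature with compound, ligand was added (TLR7 gardiquimod 7.5 μM; TLR8 R848 15.9 μM; TLR9 ODN2006 5 nM) and SEAP measured next day, at 22 h.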
For the molecule `COc1cc(-c2cc3[nH]c(=O)n([C@@H]4CCCN(CC5CCCC5)C4)c3cc2C(C)C)cn2ncnc12` [Example 211, (R)-1-(1-(cyclopentylmethyl)piperidin-3-yl)-6-isopropyl-5-(8-methoxy-[1,2,4]triazolo[1,5-a]pyridin-6-yl)-1,3-dihydro-2H-benzo[d]imidazol-2-one], half-maximal inhibition (IC50) was put at 0.05 nM.

`COc1cc(-c2cc3[nH]c(=O)n([C@H]4CC[C@H](N(CC5CC5)CC5CC5)CC4)c3cc2C(C)C)cn2ncnc12` [Example 206, 1-((1r,4s)-4-(bis(cyclopropylmethyl)amino)cyclohexyl)-6-isopropyl-5-(8-methoxy-[1,2,4]triazolo[1,5-a]pyridin-6-yl)-1,3-dihydro-2H-benzo[d]imidazol-2-one] came in with an IC50 of 0.57 nM.

In turn, `COc1cc(-c2cc3[nH]c(=O)n([C@H]4CC[C@@H](NC5CCOCC5)CC4)c3cc2C(C)C)cn2ncnc12` [Example 193, 6-isopropyl-5-(8-methoxy-[1,2,4]triazolo[1,5-a]pyridin-6-yl)-1-((1s,4s)-4-((tetrahydro-2H-pyran-4-yl)amino)cyclohexyl)-1,3-dihydro-2H-benzo[d]imidazol-2-one] returned an IC50 of 0.48 nM.

As for `COc1cc(-c2cc3[nH]c(=O)n([C@@H]4CCCN(C5CCOC5)C4)c3cc2C(C)C)cn2ncnc12` (stereo partly drawn) [Example 216, 6-isopropyl-5-(8-methoxy-[1,2,4]triazolo[1,5-a]pyridin-6-yl)-1-((3R)-1-(tetrahydrofuran-3-yl)piperidin-3-yl)-1,3-dihydro-2H-benzo[d]imidazol-2-one], half-maximal inhibition (IC50) was put at 26.4 nM.

Regarding `COc1cc(-c2cc3[nH]c(=O)n(C4CCC(N5CCCC5)CC4)c3cc2C(C)C)cn2ncnc12` (stereo not shown) [Example 232, 6-isopropyl-5-(8-methoxy-[1,2,4]triazolo[1,5-a]pyridin-6-yl)-1-(4-(pyrrolidin-1-yl)cyclohexyl)-1,3-dihydro-2H-benzo[d]imidazol-2-one], half-maximal inhibition (IC50) was put at 0.44 nM.

Turning to `CCN1CCC[C@@H](n2c(=O)[nH]c3cc(-c4cc(C)c5ncnn5c4)c(C)cc32)C1` [Example 16, (R)-1-(1-ethylpiperidin-3-yl)-6-methyl-5-(8-methyl-[1,2,4]triazolo[1,5-a]pyridin-6-yl)-1,3-dihydro-2H-benzo[d]imidazol-2-one], the IC50 stood at 31.4 nM. This IC50 is about 71-fold higher than that of the molecule before.

On to `COc1cc(-c2cc3[nH]c(=O)n(C4CCC(N5CCNC(=O)C5)CC4)c3cc2C(C)C)cn2ncnc12` (single isomer, unassigned) [Example 234, 6-isopropyl-5-(8-methoxy-[1,2,4]triazolo[1,5-a]pyridin-6-yl)-1-(4-(3-oxopiperazin-1-yl)cyclohexyl)-1,3-dihydro-2H-benzo[d]imidazol-2-one], for which inhibition was half-maximal at 10.5 nM (IC50).

Consider `Cc1c(-c2cc3[nH]c(=O)n([C@H]4CC[C@@H](NC5COC5)CC4)c3cc2C(C)C)cn2ncnc2c1C` [Example 188, 5-(7,8-dimethyl-[1,2,4]triazolo[1,5-a]pyridin-6-yl)-6-isopropyl-1-((1s,4s)-4-(oxetan-3-ylamino)cyclohexyl)-1,3-dihydro-2H-benzo[d]imidazol-2-one], for which inhibition was half-maximal at 0.95 nM (IC50). Against the preceding molecule, the IC50 is about 11-fold lower.

With `CCc1cc2c(cc1-c1cc(OC)c3ncnn3c1)[nH]c(=O)n2[C@@H]1CCCN(CCC(C)(C)C)C1` [Example 208, (R)-1-(1-(3,3-dimethylbutyl)piperidin-3-yl)-6-ethyl-5-(8-methoxy-[1,2,4]triazolo[1,5-a]pyridin-6-yl)-1,3-dihydro-2H-benzo[d]imidazol-2-one], the IC50 was determined as 3.77 nM.

In turn, `COc1cc(-c2cc3[nH]c(=O)n(C4CCC(N5CCNC(=O)C5)CC4)c3cc2C(C)C)cn2ncnc12` (single isomer, unassigned) [Example 233, 6-isopropyl-5-(8-methoxy-[1,2,4]triazolo[1,5-a]pyridin-6-yl)-1-(4-(3-oxopiperazin-1-yl)cyclohexyl)-1,3-dihydro-2H-benzo[d]imidazol-2-one] returned an IC50 of 1.9 nM.

Regarding `CCc1cc2c(cc1-c1cc(OC)c3ncnn3c1)[nH]c(=O)n2[C@@H]1CCCN(CC2CC2)C1` [Example 182, (R)-1-(1-(cyclopropylmethyl)piperidin-3-yl)-6-ethyl-5-(8-methoxy-[1,2,4]triazolo[1,5-a]pyridin-6-yl)-1,3-dihydro-2H-benzo[d]imidazol-2-one], it took 2.31 nM to reach half-maximal inhibition (IC50).

The molecule `COc1cc(-c2cc3[nH]c(=O)n(C4CCC(N5CCC6(CC5)COC6)CC4)c3cc2C(C)C)cn2ncnc12` (stereo not shown) [Example 240, 1-(4-(2-oxa-7-azaspiro[3.5]nonan-7-yl)cyclohexyl)-6-isopropyl-5-(8-methoxy-[1,2,4]triazolo[1,5-a]pyridin-6-yl)-1,3-dihydro-2H-benzo[d]imidazol-2-one] gave an IC50 of 0.13 nM.

With `CCCN1CCC[C@@H](n2c(=O)[nH]c3cc(-c4cc(OC)c5ncnn5c4)c(CC)cc32)C1` [Example 179, (R)-6-ethyl-5-(8-methoxy-[1,2,4]triazolo[1,5-a]pyridin-6-yl)-1-(1-propylpiperidin-3-yl)-1,3-dihydro-2H-benzo[d]imidazol-2-one], the IC50 was found to be 2.48 nM.

For the molecule `COCCN1CCC(n2c(=O)[nH]c3cc(-c4cc(OC)c5ncnn5c4)c(C(C)C)cc32)CC1` [Example 223, 6-isopropyl-5-(8-methoxy-[1,2,4]triazolo[1,5-a]pyridin-6-yl)-1-(1-(2-methoxyethyl)piperidin-4-yl)-1,3-dihydro-2H-benzo[d]imidazol-2-one], it took 9.01 nM to reach half-maximal inhibition (IC50). This IC50 is about 3.6-fold higher than that of the molecule before.

Molecule `Cc1cc2c(cc1-c1cc(C)c3ncnn3c1)[nH]c(=O)n2[C@H]1CCCN(C2COC2)C1` [Example 14, (S)-6-methyl-5-(8-methyl-[1,2,4]triazolo[1,5-a]pyridin-6-yl)-1-(1-(oxetan-3-yl)piperidin-3-yl)-1,3-dihydro-2H-benzo[d]imidazol-2-one] registered an IC50 of 155 nM.

As for `COc1cc(-c2cc3[nH]c(=O)n([C@H]4CC[C@@H](NCC5CCOCC5)CC4)c3cc2C(C)C)cn2ncnc12` [Example 196, 6-isopropyl-5-(8-methoxy-[1,2,4]triazolo[1,5-a]pyridin-6-yl)-1-((1s,4s)-4-(((tetrahydro-2H-pyran-4-yl)methyl)amino)cyclohexyl)-1,3-dihydro-2H-benzo[d]imidazol-2-one], the midpoint of inhibition, the IC50, lay at 0.05 nM. This IC50 is about 3100-fold lower than that of the molecule before.

`Cc1c(-c2cc3[nH]c(=O)n([C@H]4CC[C@@H](NCC5CCOCC5)CC4)c3cc2C(C)C)cn2ncnc2c1C` [Example 200, 5-(7,8-dimethyl-[1,2,4]triazolo[1,5-a]pyridin-6-yl)-6-isopropyl-1-((1s,4s)-4-(((tetrahydro-2H-pyran-4-yl)methyl)amino)cyclohexyl)-1,3-dihydro-2H-benzo[d]imidazol-2-one]: the IC50 is 0.13 nM.

With `Cc1cc2c(cc1-c1cc(C)c3ncnn3c1)[nH]c(=O)n2[C@H]1CCCN(C(C)C)C1` [Example 13, (S)-1-(1-isopropylpiperidin-3-yl)-6-methyl-5-(8-methyl-[1,2,4]triazolo[1,5-a]pyridin-6-yl)-1,3-dihydro-2H-benzo[d]imidazol-2-one], the IC50 is 62.9 nM.

Molecule `CCc1cc2c(cc1-c1cc(OC)c3ncnn3c1)[nH]c(=O)n2[C@@H]1CCCN(CC)C1` [Example 171, (R)-6-ethyl-1-(1-ethylpiperidin-3-yl)-5-(8-methoxy-[1,2,4]triazolo[1,5-a]pyridin-6-yl)-1,3-dihydro-2H-benzo[d]imidazol-2-one] gave an IC50 of 3.03 nM.

`CCc1cc2c(cc1-c1cc(OC)c3ncnn3c1)[nH]c(=O)n2[C@@H]1CCCN(C2CCOC2)C1` (stereo partly drawn) [Example 212, 6-ethyl-5-(8-methoxy-[1,2,4]triazolo[1,5-a]pyridin-6-yl)-1-((3R)-1-(tetrahydrofuran-3-yl)piperidin-3-yl)-1,3-dihydro-2H-benzo[d]imidazol-2-one] had an IC50 of 4.4 nM.

`CCc1cc2c(cc1-c1cc(OC)c3ncnn3c1)[nH]c(=O)n2[C@@H]1CCCN(C2CCOCC2)C1` [Example 184, (R)-6-ethyl-5-(8-methoxy-[1,2,4]triazolo[1,5-a]pyridin-6-yl)-1-(1-(tetrahydro-2H-pyran-4-yl)piperidin-3-yl)-1,3-dihydro-2H-benzo[d]imidazol-2-one] displayed an IC50 of 14.3 nM.

`CCN[C@H]1CC[C@@H](n2c(=O)[nH]c3cc(-c4cn5ncnc5c(C)c4C)c(C(C)C)cc32)CC1` [Example 189, 5-(7,8-dimethyl-[1,2,4]triazolo[1,5-a]pyridin-6-yl)-1-((1s,4s)-4-(ethylamino)cyclohexyl)-6-isopropyl-1,3-dihydro-2H-benzo[d]imidazol-2-one] came in with an IC50 of 3.11 nM.

The values above are taken from US12187723B2 (BRISTOL-MYERS SQUIBB COMPANY, priority 2019, dated 2025).
